Test results reported in patent US20240352021A1 (DANA-FARBER CANCER INSTITUTE, INC., priority 2021, published 2024).
Where “and” joins values, the source holds several entries; their conditions need not be identical. Identical values can stand only once. Like-named read-outs stand apart in the source and are kept apart here.

Key:
[1] = molecular target: EGFR L858R/C797S Ba/F3 cells (Homo sapiens, UniProt P00533, C797S/L858R, cells depend on it); assay: Ba/F3 cell proliferation (Cell Titer Glo), EGFR L858R/C797S; format: cell-based, murine; settings: 72 hours
Sequence of EGFR L858R/C797S Ba/F3 cells (P00533 whole entry C797S/L858R, the tested form may be a part): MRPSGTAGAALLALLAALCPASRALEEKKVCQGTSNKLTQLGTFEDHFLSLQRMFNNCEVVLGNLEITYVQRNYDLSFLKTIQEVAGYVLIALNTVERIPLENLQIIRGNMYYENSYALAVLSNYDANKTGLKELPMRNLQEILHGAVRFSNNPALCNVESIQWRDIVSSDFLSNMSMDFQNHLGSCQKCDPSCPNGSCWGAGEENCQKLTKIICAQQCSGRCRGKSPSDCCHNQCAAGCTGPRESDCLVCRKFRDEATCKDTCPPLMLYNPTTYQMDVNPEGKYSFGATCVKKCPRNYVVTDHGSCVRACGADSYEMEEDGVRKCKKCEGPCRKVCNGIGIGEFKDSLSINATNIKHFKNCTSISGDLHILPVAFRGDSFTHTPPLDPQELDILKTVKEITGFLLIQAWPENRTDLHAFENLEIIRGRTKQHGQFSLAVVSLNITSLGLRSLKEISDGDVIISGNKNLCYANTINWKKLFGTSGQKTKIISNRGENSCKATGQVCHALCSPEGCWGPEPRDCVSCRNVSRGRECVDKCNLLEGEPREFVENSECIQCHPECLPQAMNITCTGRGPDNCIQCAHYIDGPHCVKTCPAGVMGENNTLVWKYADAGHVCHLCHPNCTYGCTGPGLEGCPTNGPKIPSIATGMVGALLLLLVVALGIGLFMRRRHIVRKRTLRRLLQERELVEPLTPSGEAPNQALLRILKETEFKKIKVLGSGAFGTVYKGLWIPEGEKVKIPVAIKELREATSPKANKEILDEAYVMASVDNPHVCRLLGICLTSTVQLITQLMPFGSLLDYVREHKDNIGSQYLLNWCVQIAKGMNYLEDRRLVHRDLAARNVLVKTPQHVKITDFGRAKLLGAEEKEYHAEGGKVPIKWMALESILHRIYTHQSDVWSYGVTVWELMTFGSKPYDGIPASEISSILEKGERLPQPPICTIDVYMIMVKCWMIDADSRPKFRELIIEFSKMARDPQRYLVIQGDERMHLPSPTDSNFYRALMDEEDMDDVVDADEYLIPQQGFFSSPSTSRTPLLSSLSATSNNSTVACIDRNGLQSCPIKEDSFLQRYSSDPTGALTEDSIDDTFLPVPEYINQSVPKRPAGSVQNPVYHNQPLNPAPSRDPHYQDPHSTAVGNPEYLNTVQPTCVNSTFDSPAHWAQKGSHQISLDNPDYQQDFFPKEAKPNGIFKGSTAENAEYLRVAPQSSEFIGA
From the text: (§1) The EGFR mutant L858R Ba/F3 cells have been previously described (Zhou, W., et al. Nature 462, 2009, 1070-1074). The EGFR C797S and C775S mutations were introduced via site directed mutagenesis using the Quick Change Site-Directed Mutagenesis kit into a vector containing EGFR L858R mutation (Stratagene; La Jolla, CA) according to the manufacturer's instructions. All constructs were confirmed by DNA sequencing. The constructs were then shuttled into the retroviral vector JP1540 by either using the Cre-recombination system (Agilent Technologies, Santa Clara, CA) or the In-fusion HD Cloning kit (Takara Bio USA, Inc.; Mountain view, CA). Ba/F3 cells were then infected with retrovirus per standard protocols, as described previously (Zhou, et al, Nature 2009). Stable clones were obtained by selection in puromycin (2 μg/ml). All BaF/3 mutant cells were maintained in RPMI 1640 (Cellgro; Mediatech Inc., Herndon, CA) supplemented with 10% FBS, 100 units/mL penicillin, 100 units/mL streptomycin.
(§2) Growth and inhibition of growth was assessed by the Cell Titer Glo assay (Promega, Madison, WI) and was performed according to the manufacturer's instructions. The Cell Titer Glo assay is a luminescence-based method used to determine the number of viable cells based on quantitation of the ATP present, which is directly proportional to the amount of metabolically active cells present. Ba/F3 cells of different EGFR genotypes were exposed to compounds for 72 hours and the number of cells used per experiment was determined empirically as has been previously established (Zhou, et al., Nature 2009). All experimental points were set up in triplicates in 384-well plates. […] The curves were fitted using a non-linear regression model with a sigmoidal dose response.
(§3) Ba/F3 cells assay data are provided below in Table 5 and Table 6. For inhibitory activity against EGFR mutants, the following designations are used: <0.1 μM=A, 0.1 μM˜0.5 μM=B, 0.5 μM˜2.5 μM=C, ≥2.5 μM=D

[2] = molecular target: EGFR mutant L858R Ba/F3 cells (Homo sapiens, UniProt P00533, L858R, cells depend on it); assay: Ba/F3 cell proliferation (Cell Titer Glo), EGFR L858R; format: cell-based, murine; settings: 72 hours
Sequence of EGFR mutant L858R Ba/F3 cells (P00533 whole entry L858R): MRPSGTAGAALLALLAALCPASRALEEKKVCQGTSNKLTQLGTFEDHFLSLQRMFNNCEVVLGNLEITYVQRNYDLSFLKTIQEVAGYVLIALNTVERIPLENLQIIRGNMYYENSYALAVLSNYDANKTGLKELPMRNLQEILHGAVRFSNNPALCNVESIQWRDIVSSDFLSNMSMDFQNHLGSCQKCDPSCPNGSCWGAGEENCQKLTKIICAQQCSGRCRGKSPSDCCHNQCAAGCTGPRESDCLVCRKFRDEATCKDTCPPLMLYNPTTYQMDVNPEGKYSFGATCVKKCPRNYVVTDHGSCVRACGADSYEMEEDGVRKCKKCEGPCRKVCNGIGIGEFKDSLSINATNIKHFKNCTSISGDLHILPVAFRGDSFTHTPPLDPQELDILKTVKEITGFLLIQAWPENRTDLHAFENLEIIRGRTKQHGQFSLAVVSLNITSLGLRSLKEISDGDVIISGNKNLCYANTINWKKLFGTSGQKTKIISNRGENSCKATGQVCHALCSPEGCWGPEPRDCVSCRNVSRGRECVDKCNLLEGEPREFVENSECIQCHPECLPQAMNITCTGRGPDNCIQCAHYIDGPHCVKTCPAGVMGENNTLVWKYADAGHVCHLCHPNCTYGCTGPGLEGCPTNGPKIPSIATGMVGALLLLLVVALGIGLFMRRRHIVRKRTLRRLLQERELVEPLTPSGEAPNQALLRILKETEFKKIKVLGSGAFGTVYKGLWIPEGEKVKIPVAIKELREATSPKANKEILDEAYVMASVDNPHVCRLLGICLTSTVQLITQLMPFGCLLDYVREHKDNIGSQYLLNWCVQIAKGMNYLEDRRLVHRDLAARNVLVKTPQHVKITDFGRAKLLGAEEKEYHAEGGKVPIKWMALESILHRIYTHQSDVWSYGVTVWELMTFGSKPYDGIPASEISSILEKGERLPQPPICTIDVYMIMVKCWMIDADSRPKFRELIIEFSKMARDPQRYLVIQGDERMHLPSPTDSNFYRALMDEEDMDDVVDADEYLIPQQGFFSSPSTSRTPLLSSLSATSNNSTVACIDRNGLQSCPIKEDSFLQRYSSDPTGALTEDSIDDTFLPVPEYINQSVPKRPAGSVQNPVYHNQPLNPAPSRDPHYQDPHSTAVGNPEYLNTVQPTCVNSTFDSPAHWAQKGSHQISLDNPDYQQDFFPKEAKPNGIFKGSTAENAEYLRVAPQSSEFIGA
From the text: as §1, §2, §3

GI50 ([1]; Table 6)	GI50 ([2]; Table 6, read-out: L858R BaF3) [nM]	GI50 ([1]; Table 5) [nM]	GI50 ([2]; Table 5, read-out: L858R BaF3) [nM]	Structure (SMILES)
100 to 500 nM	100 to 500			C=CC(=O)N1CC(N2Cc3cnc(Nc4ccc(N5CCN(C)CC5)cc4)nc3N(C)C2=O)c2ccccc21 (stereo not drawn) [Compound 047, 1-methyl-7-[4-(4-methylpiperazin-1-yl)anilino]-S-(1-prop-2-enoylindolin-3-yl)-4H-pyrimido[4,5-d]pyrimidin-2-one]
≥ 2500 nM	≥ 2500			C=CC(=O)N1c2ccccc2C(N2Cc3cnc(Nc4ccc(N5CCN(C)CC5)cc4)nc3N(C)C2=O)CC1(C)C (stereo not shown) [Compound 107, 3-(1-acryloyl-2,2-dimethyl-1,2,3,4-tetrahydroquinolin-4-yl)-1-methyl-7-((4-(4-methylpiperazin-1-yl)phenyl)amino)-3,4-dihydropyrimido[4,5-d]pyrimidin-2(1H)-one]
≥ 2500 nM	≥ 2500			C=CC(=O)N1CCC(N2Cc3nnc(Nc4ccc(N5CCN(C)CC5)cc4)cc3N(C)C2=O)c2ccccc21 (stereo not drawn) [Compound 092, 5-methyl-S-[4-(4-methylpiperazin-1-yl)anilino]-7-(1-prop-2-enoyl-3,4-dihydro-2H-quinolin-4-yl)-8H-pyrimido[5,4-c]pyridazin-6-one]
< 100 nM	< 100			C=CC(=O)N1CCC(N2Cc3cnc(Nc4ccc(CN5CCN(C)CC5)c(Cl)c4)nc3N(C)C2=O)c2ccccc21 (stereo not shown) [Compound 088]
		500 to 2500	100 to 500	C=CC(=O)Nc1c(F)cccc1CN1Cc2cnc(Nc3ccc(N4CCN(C)CC4)cc3)nc2N(C)C1=O [Compound 019]
< 100 nM	< 100			C=CC(=O)N1CC[C@H](N2Cc3cnc(Nc4ccc(N5CCN(C)CC5)cc4)nc3N(C)C2=O)c2ccccc21 [Compound 048, 1-methyl-7-[4-(4-methylpiperazin-1-yl)anilino]-S-[(4S)-1-prop-2-enoyl-3,4-dihydro-2H-quinolin-4-yl]-4H-pyrimido[4,5-d]pyrimidin-2-one]
≥ 2500 nM	≥ 2500			C=CC(=O)N1CCC(N2Cc3nnc(Nc4ccc(N5CCN(C)CC5)cn4)cc3N(C)C2=O)c2ccccc21 (stereo not shown) [Compound 105]
< 100 nM	< 100			C=CC(=O)N1CCC(N2Cc3cnc(Nc4ccc(N5CCN(C)CC5)cc4)nc3N(C)C2=O)c2cccc(F)c21 (stereo not shown) [Compound 099, 3-(8-fluoro-1-prop-2-enoyl-3,4-dihydro-2H-quinolin-4-yl)-1-methyl-7-[4-(4-methylpiperazin-1-yl)anilino]-4H-pyrimido[4,5-d]pyrimidin-2-one]
≥ 2500 nM	500 to 2500			C=C(F)C(=O)N1CC(F)(F)C(N2Cc3cnc(Nc4cnn(CCO)c4)nc3N(C)C2=O)c2ccccc21 (stereo not shown) [Compound 108, 3-[3,3-difluoro-1-(2-fluoroprop-2-enoyl)-2,4-dihydroquinolin-4-yl]-7-[[1-(2-hydroxyethyl)pyrazol-4-yl]amino]-1-methyl-4H-pyrimido[4,5-d]pyrimidin-2-one]
500 to 2500 nM	100 to 500			C=CC(=O)N1CCC(N2Cc3cnc(Nc4ccc(N5CCN(C)CC5)cc4)nc3N(c3cccc(NC(C)=O)c3)C2=O)c2ccccc21 (stereo not shown) [Compound 051]
< 100 nM	< 100			C=C(F)C(=O)N1CC[C@H](N2Cc3cnc(Nc4ccc5c(c4)CCN(C)C5)nc3N(c3cnn(C)c3)C2=O)c2ccccc21 [Compound 109]
< 100 nM	< 100			C=CC(=O)N1CCC(N2Cc3cnc(Nc4ccc(N5CCN(C)CC5)cc4)nc3N(C3CCOC3)C2=O)c2ccccc21 (stereo not shown) [Compound 058]
< 100 nM	< 100			C=CC(=O)N1CC[C@H](N2Cc3cnc(Nc4ccc5c(c4)CCN(C)C5)nc3N(CCO)C2=O)c2cccc(C)c21 [Compound 154, 1-(2-hydroxyethyl)-7-[(2-methyl-3,4-dihydro-1 H-isoquinolin-6-yl)amino]-S-[(4S)-8-methyl-1-prop-2-enoyl-3,4-dihydro-2H-quinolin-4-yl]-4H-pyrimido[4,5-d]pyrimidin-2-one]
≥ 2500 nM	≥ 2500			C=CC(=O)N1Cc2ccccc2C(N2Cc3cnc(Nc4ccc(N5CCN(C)CC5)cc4)nc3N(C)C2=O)C1 (stereo not shown) [Compound 060, 3-(2-acryloyl-1,2,3,4-tetrahydroisoquinolin-4-yl)-1-methyl-7-((4-(4-methylpiperazin-1-yl)phenyl)amino)-3,4-dihydropyrimido[4,5-d]pyrimidin-2(1H)-one]
< 100 nM	< 100			C=CC(=O)N1CCC(N2Cc3cnc(Nc4ccc(N(C)CCN(C)C)c(C(F)(F)F)c4)nc3N(C)C2=O)c2ccccc21 (stereo not shown) [Compound 076]
< 100 nM	< 100			C=CC(=O)N1CCC(N2Cc3cnc(Nc4ccc(N5CCN(C)CC5)cn4)nc3N(C)C2=O)c2ccccc21 (stereo not shown) [Compound 069]
100 to 500 nM and < 100 nM	< 100			C=CC(=O)N1CCC(N2Cc3cnc(Nc4ccc(F)c(C#N)c4)nc3N(C)C2=O)c2ccccc21 (stereo not shown) [Compound 082]
< 100 nM	< 100			C=CC(=O)N1CCC(N2Cc3cnc(Nc4ccc(CN5CCN(C)CC5)cn4)nc3N(C)C2=O)c2ccccc21 (stereo not shown) [Compound 070]

GI50 ([1]; Table 6)	GI50 ([2]; Table 6, read-out: L858R BaF3) [nM]	GI50 ([1]; Table 5) [nM]	GI50 ([2]; Table 5, read-out: L858R BaF3) [nM]	Structure (SMILES)
< 100 nM	< 100			C=CC(=O)N1CCC(N2Cc3cnc(Nc4cnn(CCO)c4)nc3N(C)C2=O)c2ccccc21 (stereo not shown) [Compound 063]
500 to 2500 nM	100 to 500			C=C(F)C(=O)N1CC[C@H](N2Cc3cnc(Nc4cnn(CCO)c4)nc3N(c3ccccn3)C2=O)c2ccccc21 [Compound 111]
< 100 nM	< 100			C=CC(=O)N1CCC(N2Cc3cnc(Nc4cnn(CCN(C)C)c4)nc3N(C)C2=O)c2ccccc21 (stereo not shown) [Compound 062]
< 100 nM	< 100			CN1CCN(c2ccc(Nc3ncc4c(n3)N(C)C(=O)N([C@H]3CCN(C(=O)/C=C/CF)c5ccccc53)C4)cc2)CC1 [Compound 095]
< 100 nM	< 100			C=CC(=O)N1CCC(N2Cc3cnc(Nc4ccc(N5CCN(C)CC5)cc4Cl)nc3N(C)C2=O)c2ccccc21 (stereo not shown) [Compound 077]
< 100 nM	< 100			C=CC(=O)N1CCC(N2Cc3cnc(Nc4ccc(CN5CCN(C)CC5)cc4)nc3N(C)C2=O)c2ccccc21 (stereo not shown) [Compound 078]
< 100 nM	< 100			C=CC(=O)N1CCC(N2Cc3cnc(Nc4ccc(N5CCN(C)CC5)c(Cl)c4)nc3N(C)C2=O)c2ccccc21 (stereo not shown) [Compound 079]
		≥ 2500	500 to 2500	C=CC(=O)Nc1cccc(CN2Cc3cnc(Nc4ccc(N5CCN(C)CC5)cc4)nc3N(C)C2=O)c1 [Compound 036]
< 100 nM	< 100			C=CC(=O)N1CCC(N2Cc3cnc(Nc4ccc(N(C)C)cc4)nc3N(C)C2=O)c2ccccc21 (stereo not shown) [Compound 074]
< 100 nM	< 100			C=C(F)C(=O)N1CC[C@H](N2Cc3cnc(Nc4ccc5c(c4)CCN(C)C5)nc3N(C)C2=O)c2ccccc21 [Compound 098]
< 100 nM	< 100			C=CC(=O)N1CCC(N2Cc3cnc(Nc4ccc(N5CCN(C)CC5)c(F)c4)nc3N(C)C2=O)c2ccccc21 (stereo not shown) [Compound 055]
< 100 nM	< 100			C=CC(=O)N1CCC(N2Cc3cnc(Nc4ccc(N(C)CCN(C)C)cc4)nc3N(C)C2=O)c2ccccc21 (stereo not shown) [Compound 075]
< 100 nM	< 100			C=C(F)C(=O)N1CCC(N2Cc3cnc(Nc4ccc(N5CCN(C)CC5)cc4)nc3N(C)C2=O)c2ccccc21 (stereo not shown) [Compound 064]
< 100 nM	< 100			C=CC(=O)N1CC[C@@H](N2Cc3cnc(Nc4ccc(N5CCN(C)CC5)cc4)nc3N(C)C2=O)c2ccccc21 [Compound 049, 1-methyl-7-[4-(4-methylpiperazin-1-yl)anilino]-S-[(4R)-1-prop-2-enoyl-3,4-dihydro-2H-quinolin-4-yl]-4H-pyrimido[4,5-d]pyrimidin-2-one]
< 100 nM	< 100			C=C(F)C(=O)N1CC[C@H](N2Cc3cnc(Nc4cnn(CCO)c4)nc3N(C3CCOC3)C2=O)c2ccccc21 (stereo partly drawn) [Compound 102, 3-((S)-1-(2-fluoroacryloyl)-1,2,3,4-tetrahydroquinolin-4-yl)-7-((1-(2-hydroxyethyl)-1 H-pyrazol-4-yl)amino)-1-(tetrahydrofuran-S-yl)-3,4-dihydropyrimido[4,5-d]pyrimidin-2(1H)-one]
< 100 nM	< 100			C=CC(=O)N1CCC(N2Cc3cnc(Nc4ccc(N5CCN(C)CC5)nc4)nc3N(C)C2=O)c2ccccc21 (stereo not shown) [Compound 056]
< 100 nM	< 100			C=CC(=O)N1CCC(N2Cc3cnc(Nc4ccc(C5=CCN(C)CC5)cc4)nc3N(C)C2=O)c2ccccc21 (stereo not shown) [Compound 067]
